The source of these data is ChEMBL document CHEMBL1201862, “PubChem BioAssay data set” (2004).

By EC50 is commonly meant the concentration giving half of the maximal effect. In general, CC50 refers to the concentration giving 50% cytotoxicity. As usually defined, the AC50 is the concentration giving half of the maximal activity seen.

The target in test [1] is Voltage-dependent T-type calcium channel subunit alpha-1H (Homo sapiens, UniProt O95180). It is filed as functional.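 Further: channel activity triggered by adding a high calcium stimulation buffer.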
Chain of Voltage-dependent T-type calcium channel subunit alpha-1H (O95180 whole entry): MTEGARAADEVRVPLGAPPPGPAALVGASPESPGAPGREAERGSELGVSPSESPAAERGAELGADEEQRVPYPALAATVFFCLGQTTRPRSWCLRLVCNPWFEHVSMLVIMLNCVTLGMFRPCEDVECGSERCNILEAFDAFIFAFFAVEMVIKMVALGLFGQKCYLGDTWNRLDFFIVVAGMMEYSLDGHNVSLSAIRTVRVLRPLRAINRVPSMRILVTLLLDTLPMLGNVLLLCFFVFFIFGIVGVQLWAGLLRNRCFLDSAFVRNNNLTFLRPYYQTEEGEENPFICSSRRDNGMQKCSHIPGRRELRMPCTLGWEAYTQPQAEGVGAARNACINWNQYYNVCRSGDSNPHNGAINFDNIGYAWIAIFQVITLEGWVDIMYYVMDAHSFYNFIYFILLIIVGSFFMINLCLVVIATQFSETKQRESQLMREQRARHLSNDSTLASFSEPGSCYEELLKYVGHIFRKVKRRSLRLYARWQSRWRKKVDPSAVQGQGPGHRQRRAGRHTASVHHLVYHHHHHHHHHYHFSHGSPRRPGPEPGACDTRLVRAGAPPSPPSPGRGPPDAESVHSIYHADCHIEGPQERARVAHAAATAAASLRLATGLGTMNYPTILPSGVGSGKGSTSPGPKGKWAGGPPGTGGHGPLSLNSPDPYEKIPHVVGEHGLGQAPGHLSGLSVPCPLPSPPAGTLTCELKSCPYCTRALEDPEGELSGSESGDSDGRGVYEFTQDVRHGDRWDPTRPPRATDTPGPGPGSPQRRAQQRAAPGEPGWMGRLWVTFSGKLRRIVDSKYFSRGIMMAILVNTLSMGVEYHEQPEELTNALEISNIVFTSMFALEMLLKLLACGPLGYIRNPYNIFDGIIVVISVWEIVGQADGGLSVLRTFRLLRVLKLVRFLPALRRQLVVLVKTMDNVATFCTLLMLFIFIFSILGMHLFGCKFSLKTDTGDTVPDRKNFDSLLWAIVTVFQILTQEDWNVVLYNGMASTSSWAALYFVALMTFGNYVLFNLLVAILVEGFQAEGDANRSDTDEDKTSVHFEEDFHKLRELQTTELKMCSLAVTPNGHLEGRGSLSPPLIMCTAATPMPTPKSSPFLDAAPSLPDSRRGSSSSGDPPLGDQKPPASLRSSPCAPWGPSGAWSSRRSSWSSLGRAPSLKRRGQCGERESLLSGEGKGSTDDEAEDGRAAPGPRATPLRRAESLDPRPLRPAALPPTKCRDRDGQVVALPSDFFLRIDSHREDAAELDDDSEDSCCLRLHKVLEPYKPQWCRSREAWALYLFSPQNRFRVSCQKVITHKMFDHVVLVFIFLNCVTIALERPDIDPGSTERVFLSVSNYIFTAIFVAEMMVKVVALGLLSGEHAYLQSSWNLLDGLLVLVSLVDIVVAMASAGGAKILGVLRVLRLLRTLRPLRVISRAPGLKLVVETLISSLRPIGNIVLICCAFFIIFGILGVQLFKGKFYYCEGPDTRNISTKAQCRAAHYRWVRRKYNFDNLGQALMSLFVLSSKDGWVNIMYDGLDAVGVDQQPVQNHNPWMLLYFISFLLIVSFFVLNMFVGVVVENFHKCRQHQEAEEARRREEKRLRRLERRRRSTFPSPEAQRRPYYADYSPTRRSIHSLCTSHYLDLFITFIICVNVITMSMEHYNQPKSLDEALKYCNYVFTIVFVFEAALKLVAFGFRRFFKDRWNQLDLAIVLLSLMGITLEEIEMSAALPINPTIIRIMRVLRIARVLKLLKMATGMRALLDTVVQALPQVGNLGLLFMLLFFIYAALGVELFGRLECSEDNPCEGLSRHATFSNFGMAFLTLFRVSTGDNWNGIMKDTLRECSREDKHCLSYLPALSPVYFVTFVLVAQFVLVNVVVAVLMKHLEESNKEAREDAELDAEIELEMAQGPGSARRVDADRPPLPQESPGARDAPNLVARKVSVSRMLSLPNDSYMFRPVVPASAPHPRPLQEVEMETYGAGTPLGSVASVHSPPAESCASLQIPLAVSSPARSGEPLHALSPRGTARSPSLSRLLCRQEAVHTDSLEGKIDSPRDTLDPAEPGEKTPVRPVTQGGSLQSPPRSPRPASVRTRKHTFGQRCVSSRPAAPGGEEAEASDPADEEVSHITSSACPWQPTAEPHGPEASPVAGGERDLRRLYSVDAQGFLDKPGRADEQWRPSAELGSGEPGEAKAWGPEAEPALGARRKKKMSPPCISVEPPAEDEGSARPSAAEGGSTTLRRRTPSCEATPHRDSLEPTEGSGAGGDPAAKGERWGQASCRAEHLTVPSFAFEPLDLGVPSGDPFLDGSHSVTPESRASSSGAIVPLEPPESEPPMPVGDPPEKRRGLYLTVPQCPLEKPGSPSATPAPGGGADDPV
Test [2] addresses T1, Polyadenylate-binding protein 1 (Homo sapiens, UniProt P11940). Briefly: PABP1 MLLE–PAM2 interaction inhibitors, dose response, miRNA deadenylation inhibitor project, biochemical, fluorescence polarization, Cy5-PAM2 peptide, secondary (AID 602260). It is filed as functional. The settings on record: read-out: IC50_Mean.
The target of test [3] is T1, Polyadenylate-binding protein 1. The test can be described thus: PABP1 MLLE–PAM2 binding inhibitor potency, dose response, biochemical, fluorescence polarization, FITC-PAM2 peptide (AID 602259). The class given is functional. The settings on record: read-out: IC50_Mean.
Another test concerns the target Genome polyprotein (dengue virus type 2, UniProt P29990). Briefly: Dengue-2 NS5 methyltransferase inhibitors, primary screen, biochemical, confirmation dose response (AID 588689). It is filed as functional.
Test [4] has as its target T2, Rac GTPase-activating protein 1 (Homo sapiens, UniProt Q9H0H5).
T2 sequence (Q9H0H5 whole entry): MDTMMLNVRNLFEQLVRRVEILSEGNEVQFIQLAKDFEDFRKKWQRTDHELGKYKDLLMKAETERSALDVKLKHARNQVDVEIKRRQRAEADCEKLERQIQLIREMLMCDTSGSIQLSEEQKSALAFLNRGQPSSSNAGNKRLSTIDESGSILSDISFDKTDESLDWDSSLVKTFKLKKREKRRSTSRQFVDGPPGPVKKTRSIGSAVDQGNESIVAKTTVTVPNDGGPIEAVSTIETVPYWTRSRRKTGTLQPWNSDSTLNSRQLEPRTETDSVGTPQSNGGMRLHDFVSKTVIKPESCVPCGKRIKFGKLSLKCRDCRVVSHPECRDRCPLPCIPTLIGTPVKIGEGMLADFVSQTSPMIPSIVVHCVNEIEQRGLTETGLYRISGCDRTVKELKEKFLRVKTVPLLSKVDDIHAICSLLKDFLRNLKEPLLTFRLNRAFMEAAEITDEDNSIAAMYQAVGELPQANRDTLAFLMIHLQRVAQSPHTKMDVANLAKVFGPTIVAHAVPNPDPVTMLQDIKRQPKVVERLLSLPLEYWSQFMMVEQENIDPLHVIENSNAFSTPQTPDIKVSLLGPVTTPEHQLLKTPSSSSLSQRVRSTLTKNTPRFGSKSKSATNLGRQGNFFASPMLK
The test can be described thus: MgcRacGAP GTPase-activating activity inhibitors, confirmation, biochemical, ADP Hunter fluorescence, primary and confirmatory (AID 624330). The class given is functional.

The target of test [5] is T3, Fatty acid synthase (Homo sapiens, UniProt P49327). The test can be described thus: FAS thioesterase domain inhibitors, dose response, biochemical, kinetic fluorescence intensity (AID 624326).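 Further: rate of fluorescence rise from hydrolysis of a fluorogenic O-methyl fluorescein ester substrate.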 It is filed as functional.
Test [6] addresses T3, Fatty acid synthase. The test can be described thus: FAS thioesterase domain inhibitors, dose response, biochemical, endpoint fluorescence intensity, uHTS hits (AID 624327).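 Further: fluorescence from hydrolysis of an O-methyl fluorescein acyl ester substrate by the enzyme.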 It is filed as functional.
Test [7] can be described thus: THP-1 cell cytotoxicity, dose response, cytotoxicity control for Vif-APOBEC3G degradation inhibitor project, THP-1 cells (AID 1117359). The settings on record: Human immunodeficiency virus 1, THP-1. It is filed as functional.
Test [8] concerns the target Heat shock protein HSP 90-alpha (Homo sapiens, UniProt P07900). The class given is functional, organism-based.
Test [9] has as its target T4, Replicative DNA helicase DnaB (Mycobacterium tuberculosis, UniProt P9WMR3).
T4 sequence (P9WMR3 whole entry): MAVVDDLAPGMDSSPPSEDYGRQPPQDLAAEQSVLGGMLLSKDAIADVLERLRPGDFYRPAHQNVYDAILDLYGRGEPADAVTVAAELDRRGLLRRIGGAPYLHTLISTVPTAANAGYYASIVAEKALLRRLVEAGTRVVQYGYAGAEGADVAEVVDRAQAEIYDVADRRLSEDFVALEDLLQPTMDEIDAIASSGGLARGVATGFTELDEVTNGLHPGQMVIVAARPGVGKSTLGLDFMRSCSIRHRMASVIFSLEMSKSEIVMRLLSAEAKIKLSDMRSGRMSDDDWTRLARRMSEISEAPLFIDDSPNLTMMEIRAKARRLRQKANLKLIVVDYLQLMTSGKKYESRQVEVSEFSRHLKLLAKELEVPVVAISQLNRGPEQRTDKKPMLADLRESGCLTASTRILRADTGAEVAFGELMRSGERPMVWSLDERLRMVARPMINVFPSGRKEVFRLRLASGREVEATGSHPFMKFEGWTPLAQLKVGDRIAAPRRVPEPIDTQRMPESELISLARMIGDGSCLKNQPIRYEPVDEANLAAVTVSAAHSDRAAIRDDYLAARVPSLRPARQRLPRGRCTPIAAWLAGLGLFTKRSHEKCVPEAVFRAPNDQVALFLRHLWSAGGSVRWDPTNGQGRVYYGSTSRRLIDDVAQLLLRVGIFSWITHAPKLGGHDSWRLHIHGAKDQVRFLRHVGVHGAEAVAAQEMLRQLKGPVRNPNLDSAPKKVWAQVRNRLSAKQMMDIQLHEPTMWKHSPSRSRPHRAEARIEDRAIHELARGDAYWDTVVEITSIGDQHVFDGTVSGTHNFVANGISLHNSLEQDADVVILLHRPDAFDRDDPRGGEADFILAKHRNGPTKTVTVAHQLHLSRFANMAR
The test can be described thus: DnaB intein splicing inhibitors, dose response, biochemical, cell-free fluorescence (AID 449749). The class given is functional.

A further test concerns the target T5, Protein RecA (Mycobacterium tuberculosis, UniProt P9WHJ3).
T5 sequence (P9WHJ3 whole entry): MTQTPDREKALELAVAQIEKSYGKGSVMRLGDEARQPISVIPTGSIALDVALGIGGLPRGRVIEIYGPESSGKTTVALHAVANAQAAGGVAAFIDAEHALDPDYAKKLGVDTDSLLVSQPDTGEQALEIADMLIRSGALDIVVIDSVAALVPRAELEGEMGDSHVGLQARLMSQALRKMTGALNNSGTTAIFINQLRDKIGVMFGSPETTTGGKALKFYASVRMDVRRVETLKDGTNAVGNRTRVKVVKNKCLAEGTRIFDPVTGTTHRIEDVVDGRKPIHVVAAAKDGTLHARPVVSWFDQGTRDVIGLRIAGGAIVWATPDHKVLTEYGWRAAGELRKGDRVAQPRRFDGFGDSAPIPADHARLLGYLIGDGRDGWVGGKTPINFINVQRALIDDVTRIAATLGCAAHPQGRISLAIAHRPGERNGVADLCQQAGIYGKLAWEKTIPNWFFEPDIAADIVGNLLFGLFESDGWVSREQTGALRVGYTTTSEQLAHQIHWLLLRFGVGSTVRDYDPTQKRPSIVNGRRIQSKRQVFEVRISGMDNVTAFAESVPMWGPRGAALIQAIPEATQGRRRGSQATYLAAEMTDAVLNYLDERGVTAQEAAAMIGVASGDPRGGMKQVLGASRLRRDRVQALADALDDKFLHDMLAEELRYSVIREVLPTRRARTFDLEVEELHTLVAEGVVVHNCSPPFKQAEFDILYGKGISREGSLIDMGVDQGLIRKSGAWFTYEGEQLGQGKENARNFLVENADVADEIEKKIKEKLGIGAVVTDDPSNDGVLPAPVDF
The test can be described thus: Fluorescence Cell-Free Homogeneous Dose Retest to Identify Inhibitors of RecA-Intein Splicing Activity. [Related pubchem assays (depositor defined):AID2097, AID2223, AID489010, AID492950]. The class given is functional.

The target in test [10] is T6, Short transient receptor potential channel 4 (Mus musculus, UniProt Q9QUQ5).
T6 sequence (Q9QUQ5 whole entry): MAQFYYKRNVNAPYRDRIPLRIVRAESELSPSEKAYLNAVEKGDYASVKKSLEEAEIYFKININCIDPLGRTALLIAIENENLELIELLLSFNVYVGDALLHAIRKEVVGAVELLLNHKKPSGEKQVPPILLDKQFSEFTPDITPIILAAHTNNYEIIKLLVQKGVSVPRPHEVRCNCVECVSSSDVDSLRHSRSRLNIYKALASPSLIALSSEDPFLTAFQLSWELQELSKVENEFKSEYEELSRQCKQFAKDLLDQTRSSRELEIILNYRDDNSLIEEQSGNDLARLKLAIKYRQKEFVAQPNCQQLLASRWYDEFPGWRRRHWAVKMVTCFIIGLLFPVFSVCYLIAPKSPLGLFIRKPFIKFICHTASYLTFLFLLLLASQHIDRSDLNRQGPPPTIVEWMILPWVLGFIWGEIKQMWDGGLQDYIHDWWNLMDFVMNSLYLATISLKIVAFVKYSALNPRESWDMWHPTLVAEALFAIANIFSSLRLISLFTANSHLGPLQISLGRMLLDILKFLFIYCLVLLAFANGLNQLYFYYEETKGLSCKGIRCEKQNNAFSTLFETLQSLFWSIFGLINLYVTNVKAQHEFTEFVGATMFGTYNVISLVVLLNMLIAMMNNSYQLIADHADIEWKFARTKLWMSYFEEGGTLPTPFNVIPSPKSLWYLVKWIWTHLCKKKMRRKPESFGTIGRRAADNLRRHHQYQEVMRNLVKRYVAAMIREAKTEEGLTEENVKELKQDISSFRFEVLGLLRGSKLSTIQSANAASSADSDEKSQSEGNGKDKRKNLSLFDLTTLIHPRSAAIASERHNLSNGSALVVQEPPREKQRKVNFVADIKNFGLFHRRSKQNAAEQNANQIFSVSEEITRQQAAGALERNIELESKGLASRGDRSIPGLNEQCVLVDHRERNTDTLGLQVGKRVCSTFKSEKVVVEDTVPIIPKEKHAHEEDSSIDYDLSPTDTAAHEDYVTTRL
Briefly: mouse TRPC4 channel inhibitors, dose response, cell-based, HEK293 TRPC4/mu-opioid, Fluo-4 calcium (AID 434942).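 Further: potency of inhibitors blocking the TRPC4 calcium response.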 The class given is functional.

A short description of test [11]: inhibitors of clade B AD8 Env fusion, dose response, cell-based, cherry-pick (AID 652062).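 Further: luciferase signal from cell-cell fusion driven by HIV-1 clade B AD8 Env; potency is for inhibitors of fusion seen as a drop in luminescence.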 The class given is functional.
Test [12] can be described thus: ZM109 Env clade C HIV-1 fusion inhibitors, dose response, HeLa effector, CEM target cells, luciferase, cherry-pick (AID 652058). It is filed as functional, cell-based.
The nature of test [13]: inhibitors of HIV Env-driven cell fusion, dose response, cherry-pick (AID 652057). The class given is functional, cell-based.

Calls of active or inactive are those of the source.

T1 sequence (P11940 whole entry): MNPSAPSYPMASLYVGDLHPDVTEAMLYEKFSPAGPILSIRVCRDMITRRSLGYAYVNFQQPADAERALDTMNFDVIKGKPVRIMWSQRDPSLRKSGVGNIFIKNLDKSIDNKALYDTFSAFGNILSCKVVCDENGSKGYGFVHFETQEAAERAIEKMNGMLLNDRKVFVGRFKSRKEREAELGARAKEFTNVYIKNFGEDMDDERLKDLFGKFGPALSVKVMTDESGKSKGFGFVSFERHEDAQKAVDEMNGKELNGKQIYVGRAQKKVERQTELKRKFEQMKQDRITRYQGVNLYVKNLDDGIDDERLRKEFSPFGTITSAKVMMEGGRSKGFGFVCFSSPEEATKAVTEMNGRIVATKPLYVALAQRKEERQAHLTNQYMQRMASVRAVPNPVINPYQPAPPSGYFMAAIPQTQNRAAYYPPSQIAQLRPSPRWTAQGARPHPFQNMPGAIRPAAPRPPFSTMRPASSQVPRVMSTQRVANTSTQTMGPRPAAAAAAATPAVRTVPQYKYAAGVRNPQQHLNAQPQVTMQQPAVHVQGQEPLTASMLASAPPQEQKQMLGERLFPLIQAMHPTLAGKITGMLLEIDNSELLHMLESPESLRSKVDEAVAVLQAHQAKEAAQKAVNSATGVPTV
Chain of Genome polyprotein (P29990 2492-3391 limits assumed): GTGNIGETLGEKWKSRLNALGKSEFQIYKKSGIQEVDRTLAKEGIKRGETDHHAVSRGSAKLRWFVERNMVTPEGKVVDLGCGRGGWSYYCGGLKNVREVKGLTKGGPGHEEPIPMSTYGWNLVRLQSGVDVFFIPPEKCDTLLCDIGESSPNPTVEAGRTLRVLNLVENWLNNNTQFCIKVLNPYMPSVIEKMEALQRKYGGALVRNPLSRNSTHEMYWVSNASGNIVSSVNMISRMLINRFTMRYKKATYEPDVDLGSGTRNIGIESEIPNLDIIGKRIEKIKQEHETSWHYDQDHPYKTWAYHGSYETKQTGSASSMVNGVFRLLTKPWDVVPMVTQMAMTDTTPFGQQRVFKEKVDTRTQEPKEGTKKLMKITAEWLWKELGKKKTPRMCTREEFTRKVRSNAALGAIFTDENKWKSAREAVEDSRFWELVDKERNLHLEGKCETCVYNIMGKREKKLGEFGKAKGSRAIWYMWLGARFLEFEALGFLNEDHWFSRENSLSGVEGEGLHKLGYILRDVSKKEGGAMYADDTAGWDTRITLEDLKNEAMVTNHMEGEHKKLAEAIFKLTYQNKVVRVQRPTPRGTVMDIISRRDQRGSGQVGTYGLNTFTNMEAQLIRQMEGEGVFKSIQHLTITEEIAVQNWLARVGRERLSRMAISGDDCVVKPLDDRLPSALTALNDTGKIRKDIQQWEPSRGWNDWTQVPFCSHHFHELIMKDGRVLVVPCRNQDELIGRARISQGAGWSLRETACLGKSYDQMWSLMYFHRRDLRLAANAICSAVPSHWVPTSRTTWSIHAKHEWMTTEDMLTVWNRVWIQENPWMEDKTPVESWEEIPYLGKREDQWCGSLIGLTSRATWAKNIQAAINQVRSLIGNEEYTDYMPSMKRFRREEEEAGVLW

In the case of `Cc1ccc(-c2noc(CN(C(=O)C(c3ccccc3)c3ccccc3)C(C)C)n2)cc1`, in [1], the 50% effective concentration (EC50) was 5.14 µM (active).

For the compound `COc1cccc(/C=C2\C(=O)C(=O)c3ccccc32)c1`, the IC50 in [2] is > 66 µM (inactive); in test [3], > 66 µM (inactive); on Genome polyprotein, 12.9 µM (active); in [4] it was 47.3 µM (active).

Consider `COc1ccc(N2CCN(C(=O)CC(NC(N)=O)c3cccc(Oc4ccccc4)c3)CC2)cc1` (stereo not drawn), for which the EC50 in test [1] is 13.7 µM (active).

Consider `Cc1cc(C)c2c(N)c(C(=O)NCC3CCCCC3)sc2n1`, for which the IC50 in test [2] and in test [3] was > 66 µM (inactive) in each case.

Regarding `COC(=O)C(CCCCNC(=O)c1ccc([N+](=O)[O-])cc1)NC(=O)c1ccc([N+](=O)[O-])cc1` (stereo not drawn), the values for the IC50 on Fatty acid synthase [5] and on Fatty acid synthase [6] were 55.8 µM (inactive) and 33.6 µM (inactive), respectively.

For the compound `CCN(CC)CCSC(=O)C(c1ccccc1)c1ccccc1`, the IC50 in test [2] and in test [3] was > 66 µM (inactive) in each case.

`O=C(NC(=S)Nc1ccccc1Cl)c1cncc(Br)c1`: the IC50 in test [2] and in test [3] was > 66 µM (inactive) each time.

Turning to `O=C(CC1NCCNC1=O)Nc1ccc(Oc2ccccc2)cc1` (stereo not drawn), the EC50 in test [1] was 8.83 µM (active).

In the case of `COC(=O)N1C(=O)[C@](Cc2ccccc2)(c2ccccc2)N1C(=O)OC`, the IC50 was 4.85 µM (active) on Fatty acid synthase [5] and 5.18 µM (active) on Fatty acid synthase [6].

Turning to `Cc1nn(Cc2ccc([N+](=O)[O-])cc2)c(=O)n1N(C)c1ncc(C(F)(F)F)cc1Cl`, the IC50 on Fatty acid synthase [5] is 2.51 µM (active); on Fatty acid synthase [6], 4.91 µM (active).

Turning to `CN1C(C(=O)NCc2cccc(Br)c2)CC2Cn3c(nc4cc(Cl)c(Cl)cc43)C21` (stereo not drawn), the figures for the IC50 on Fatty acid synthase [5] and on Fatty acid synthase [6] were 10.3 µM (active) and 15.2 µM (active), respectively.

Turning to `CC1CCN(c2ccc([N+](=O)[O-])c(SCCO)c2)CC1`, the cytotoxic concentration (CC50) in test [7] is > 40 µM (active).

In the case of `COc1ccc(OC)c(NC(=O)Nc2ccc(O)c3ccccc23)c1`, the figures for the AC50 in test [8] and in test [9] were 0.434 µM (active) and 11.5 µM (active), respectively. Moreover, the EC50 on Protein RecA was 0.152 µM (active).

Turning to `CC[C@]1(C(=O)OC)[C@H]2C(=O)N(Cc3ccccc3)C(=O)[C@H]2[C@H]2CN=C(SCC(=O)c3ccccc3)N21`, the IC50 in test [2] and in [3] was > 66 µM (inactive) each time.

`O=C(COc1ccc(Cl)cc1)Nc1ccc(C(=O)O)cc1NC(=O)COc1ccc(Cl)cc1`: the IC50 at Fatty acid synthase [5] was 7.29 µM (active); at Fatty acid synthase [6], 15.3 µM (active). In addition, the EC50 in test [10] was 0.0013 µM (active).

For `C[C@H]1CN([C@@H](C)CO)S(=O)(=O)c2ccc(Br)cc2O[C@H]1CN(C)Cc1ccccc1`, the AC50 in test [11] was 33.4 µM (active); in test [12], 20.6 µM (active); in test [13] it was 23.5 µM (active).

As to `O=C(c1cccc(C(F)(F)F)c1)C1CCCN(C(=O)CCCN2CCCC2=O)C1` (stereo not drawn), in test [7], the CC50 was > 40 µM (active).

For `COc1ccc(NC(=O)Nc2ccc3c(c2)C(=O)N([C@@H](C)CO)C[C@H](C)[C@H](CN(C)S(=O)(=O)c2ccc(C)cc2)O3)cc1`, the concentration at half-maximal activity (AC50) in test [11] was 23 µM (active); in [12] it was 17.5 µM (active); in test [13], 6.5 µM (active).

As to `c1ccc2c3c([nH]c2c1)CNCC3` [TRYPTOLINE], the CC50 in test [7] is 28.7 µM (active).
